Earlier results as cited in US12285459B2, “Saposin-A derived peptides and uses thereof” (CHILDREN'S MEDICAL CENTER CORPORATION, priority 2011, dated 2025).

System: VEGF
Settings: cited from earlier work

SMILES: CN(C)c1ccc(/C=C2\C(=O)Nc3ccccc32)cc1 [SU 4312]
- vessel formation: blocked
